# pKd: −log10 of the molar value.
# Assays:
# sif285-1 GCN2 cells = assay: Growth on SD ±3AT media; assay type: cell-based, yeast; settings: sif285-1 cells transformed with WT GCN2 plasmid
# Experimental: Strains used and generated in this work are derivatives of S288c and are described in Supplementary Table S1. Cell growth was performed at 30°C in standard yeast rich (YPD), synthetic defined minimal (SD) or synthetic complete (SC) media lacking nutrients for plasmid selection. All media have 2% glucose as a carbon source ([25]). 3-Amino-1,2,4-triazole (3AT) (Fluka) was added where indicated. For serial dilution growth assays, cells were grown to A600 = 0.6, diluted to 0.1 and 2–3 μl of 10-fold dilutions were spotted on the agar surface. Plasmid shuffling to select for loss of URA3 plasmids employed 5-fluoro-orotic acid (5-FOA; Sigma-Aldrich), while loss of LEU2 plasmids relied on passive loss during unselected growth and subsequent screening. Mating type switching employed HO plasmid pAV1621 (pHO1.5) followed by 5-FOA, sporulation, tetrad dissection and mating type testing ([25]). gcd6Δ sui3Δ double deletion strains (GP7216-19) were made by polymerase chain reaction (PCR) amplifying gcd6Δ::KanMX cassette from a BY4743 gcd6Δ::KanMX/GCD6 diploid strain (GP4146) and transforming the DNA fragment into sui3Δ gcn2Δ [SUI3-Flag TRP1] [GCD6 URA3] strains to generate G418 resistant cells unable to lose the covering GCD6 plasmid upon 5-FOA selection.
# HIS4-LacZ [1] = assay: β-galactosidase assay of HIS4-LacZ fusion; assay type: cell-based, yeast; settings: sif285-1 cells bearing GCD6, 3AT treatment
# Experimental: Measurement of β-galactosidase levels from a HIS4-LacZ fusion genomically-integrated at ura3-52 was performed exactly as described ([36]) using whole protein extracts from cells grown in SC medium lacking histidine and uracil or following addition of 10 mM 3AT for 6 h. Units are nmole o-nitrophenyl-β-D-galacto-pyranoside cleaved/min/μg total protein ± SE, n = 3.
# HIS4-LacZ [2] = test system: HIS4-LacZ; parameters: method as in PMID 16153175; settings: by GAAC via increased GCN4 translation in the presence of 3AT; cited from earlier work
# [3] = GDP dissociation assay, intrinsic BODIPY-GDP off-rate; assay type: binding; settings: 20 nM eIF2•BODIPY-GDP, 1 mM unlabelled GDP, 0 nM eIF2B
# Experimental: (§1) Fluorescent eIF2•BODIPY-GDP binary complex was formed by incubating apo–eIF2 with a 2× excess of BODIPY-FL-GDP (Thermo Fisher Scientific) for 20 min at room temperature. Excess nucleotide was removed by passing through a G-50 sephadex column (GE Healthcare). Labelling efficiency was calculated to exceed 90%. […] K1/2 and Kmax values were determined from curve fitting y = [(Kmax × x)/(K1/2 + x)] + c.
# Met–tRNAi = assay: Steady state fluorescence, BOP-N-Met-tRNAi binding to apo-eIF2; parameters: species or system Yeast; settings: 20 nM BOP-N-Met-tRNAi with 1 mM GTP, purified apo-eIF2
# Experimental: (§2) To assay nucleotide affinity, fluorescence intensity of 100 nM of BODIPY-FL-GDP or BODIPY-FL-GTP (Thermo Fisher Scientific) in 180 μl of assay buffer (30 mM HEPES, 100 mM KCl, 10 mM MgCl2, pH 7.4) was measured using a Fluoromax-4 spectrophotometer (Horiba) (490 nm excitation, 509 nm emission). Yeast Met–tRNAi was assayed in a similar manner using 20 nM BOP-N-Met–tRNAi (tRNA probes) but with the addition of 1 mM GTP. Change in fluorescence intensity was measured upon addition of increasing amounts of apo–eIF2, incubating for 5 min at room temperature each time. Each measurement was blanked against a control without nucleotide to account for any affect of eIF2 and data were corrected for dilution effects caused by volume addition and normalized to starting values before being fitted to a single site binding model: y = 1 + [(ΔFmax - 1)*(x/(x + Kd))].
# eIF5 = eIF5 GDI activity, BODIPY-GDP release with GST-eIF5; assay type: biochemical, yeast; settings: eIF2•BODIPY-GDP 20 nM, purified eIF5 0–80 nM
# Experimental: as §1
# We therefore decided to assess eIF5 GDI activity directly. We monitored eIF5 GDI activity by incubating eIF2•BODIPY-GDP (20 nM) with purified eIF5 (0–80 nM) and recorded the fluorescence change upon dissociation of BODIPY-GDP from eIF2.
# eIF2 WT = biological target: T1, eIF2 WT (Saccharomyces cerevisiae, UniProt P32481); assay: Steady-state fluorescence titration of 100 nM BODIPY-FL nucleotide with increasing apo-eIF2 (490 nm excitation, 509 nm emission) in 30 mM HEPES, 100 mM KCl, 10 mM MgCl2, pH 7.4, at room temperature, fitted to a single-site binding model.
# T1 construct: gene GCD11; purified apo-eIF2 heterotrimer; V5-SUI3 (N-terminal V5 tag on eIF2β), SUI2, His6-GCD11; nucleotide-free after EDTA dialysis
# Experimental: as §2
# (§3) eIF2 was purified from yeast strains GP7145 and GP7146 expressing V5-sui3-E189K or the V5-SUI3 derivatives of eIF2β by sequential nickel affinity, HiTrap Heparin and HiTrap Q sepharose chromatography as described ([14]). To obtain apo–eIF2 free from nucleotide, eIF2 was dialysed with EDTA (30 mM HEPES, 100 mM KCl, 1 mM DTT, 1 mM EDTA, 10% glycerol, pH 7.4) then with magnesium (30 mM HEPES, 100 mM KCl, 1 mM DTT, 0.1 mM MgCl2, 10% glycerol, pH 7.4).
# (§4) Figure 4. […] (A) Affinity (Kd) of GDP, GTP and Met–tRNAi to purified WT and mutant (β E189K) apo–eIF2 complexes measured by monitoring the fluorescence intensity of 100 nM BODIPY-FL-GDP (left), 100 nM BODIPY-FL-GTP (middle) or 20 nM BOP-N-Met–tRNAi with 1 mM GTP (right). […] K1/2 and Kmax values were determined from curve fitting y = [(Kmax × x)/(K1/2 + x)] + c. (C) Western blotting of IP of Flag-eIF2β, Flag-E189K and an untagged control from cells showing its co-association with known binding proteins. Quantification of at least three repeats using Li-Cor fluorescent secondary antibodies ±SE. […] Tif5 is indicated with an arrow, ‘♦’ marks a non-specific band.
# [4] = biological target: T2, eIF2 (β E189K), eIF2βE189K (Saccharomyces cerevisiae, UniProt P09064+P32481, E189K); assay: as above
# T2 construct: purified apo-eIF2 heterotrimer; V5-sui3-E189K (N-terminal V5 tag on eIF2β), SUI2, His6-GCD11; nucleotide-free after EDTA dialysis
# Experimental: as §2, §3, §4
# [5] = biological target: eIF2^βE189K (V5-eIF2β-E189K, eIF2α, His6-eIF2γ), purified (S. cerevisiae) (UniProt P09064)
# eIF2^βE189K (V5-eIF2β-E189K, eIF2α, His6-eIF2γ), purified (S. cerevisiae), sequence (P09064 whole entry E189K, chain 1 of 3): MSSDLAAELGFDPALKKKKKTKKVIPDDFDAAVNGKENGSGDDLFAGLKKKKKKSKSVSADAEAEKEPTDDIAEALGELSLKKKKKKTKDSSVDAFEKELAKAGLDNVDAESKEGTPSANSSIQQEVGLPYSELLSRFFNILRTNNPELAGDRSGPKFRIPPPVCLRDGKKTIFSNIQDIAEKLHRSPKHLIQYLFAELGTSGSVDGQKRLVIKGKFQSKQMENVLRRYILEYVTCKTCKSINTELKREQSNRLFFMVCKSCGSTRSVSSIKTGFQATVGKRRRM
# eIF2^βE189K (V5-eIF2β-E189K, eIF2α, His6-eIF2γ), purified (S. cerevisiae), sequence (chain, as listed by the source E189K E189K, chain 2 of 3): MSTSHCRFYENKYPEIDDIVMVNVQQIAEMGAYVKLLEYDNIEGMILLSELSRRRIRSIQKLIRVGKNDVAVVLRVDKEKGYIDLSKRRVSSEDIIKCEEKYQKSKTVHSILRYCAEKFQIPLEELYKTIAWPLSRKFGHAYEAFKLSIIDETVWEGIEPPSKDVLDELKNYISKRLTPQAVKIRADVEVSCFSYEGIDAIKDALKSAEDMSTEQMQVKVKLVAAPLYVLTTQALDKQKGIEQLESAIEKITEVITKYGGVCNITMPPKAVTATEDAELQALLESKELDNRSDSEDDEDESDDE
# eIF2^βE189K (V5-eIF2β-E189K, eIF2α, His6-eIF2γ), purified (S. cerevisiae), sequence (chain, as listed by the source E189K E189K, chain 3 of 3): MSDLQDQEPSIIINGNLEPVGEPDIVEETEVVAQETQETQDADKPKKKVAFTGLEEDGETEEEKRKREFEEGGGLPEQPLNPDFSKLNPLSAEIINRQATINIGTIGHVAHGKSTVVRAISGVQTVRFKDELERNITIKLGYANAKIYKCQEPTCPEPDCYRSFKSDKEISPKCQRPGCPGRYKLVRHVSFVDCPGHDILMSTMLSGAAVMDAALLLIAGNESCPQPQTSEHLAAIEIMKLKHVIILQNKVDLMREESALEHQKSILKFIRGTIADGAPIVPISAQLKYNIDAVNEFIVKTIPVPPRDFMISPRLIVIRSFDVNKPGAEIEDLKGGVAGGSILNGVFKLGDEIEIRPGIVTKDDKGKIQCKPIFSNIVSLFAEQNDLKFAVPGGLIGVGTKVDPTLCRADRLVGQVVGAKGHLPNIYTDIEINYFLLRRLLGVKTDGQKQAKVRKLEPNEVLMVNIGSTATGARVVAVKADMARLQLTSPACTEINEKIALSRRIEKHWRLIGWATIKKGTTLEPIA
# T2 sequence (P09064 whole entry E189K): as the sequence (P09064 whole entry E189K, chain 1 of 3) above
# T2 sequence (P32481 whole entry): as the sequence (chain, as listed by the source E189K E189K, chain 3 of 3) above
# T2 sequence (P20459 whole entry, stated change not applied, further chain): as the sequence (chain, as listed by the source E189K E189K, chain 2 of 3) above
# T1 sequence (P32481 whole entry): as the sequence (chain, as listed by the source E189K E189K, chain 3 of 3) above
# T1 sequence (P20459 whole entry partner): as the sequence (chain, as listed by the source E189K E189K, chain 2 of 3) above
# T1 sequence (P09064 whole entry partner): as the sequence (P09064 whole entry E189K, chain 1 of 3) above, with K189E counted along it
# eIF5, sequence (P38431 whole entry): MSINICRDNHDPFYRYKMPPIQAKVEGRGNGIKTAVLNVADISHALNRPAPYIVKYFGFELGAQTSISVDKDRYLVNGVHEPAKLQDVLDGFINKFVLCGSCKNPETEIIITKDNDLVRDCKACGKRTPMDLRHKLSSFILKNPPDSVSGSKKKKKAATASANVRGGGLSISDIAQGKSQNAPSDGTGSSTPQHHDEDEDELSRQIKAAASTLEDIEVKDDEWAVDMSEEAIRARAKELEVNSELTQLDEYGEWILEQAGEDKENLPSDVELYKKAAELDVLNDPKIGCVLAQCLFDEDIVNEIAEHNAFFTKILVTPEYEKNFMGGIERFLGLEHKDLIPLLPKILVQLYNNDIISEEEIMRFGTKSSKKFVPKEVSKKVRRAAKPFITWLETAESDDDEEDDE
# eIF5, sequence (P32481 whole entry, further chain): as the sequence (chain, as listed by the source E189K E189K, chain 3 of 3) above
# eIF5, sequence (P20459 whole entry, further chain): as the sequence (chain, as listed by the source E189K E189K, chain 2 of 3) above
molecule,measurement,setting,value
"Nc1nc[nH]n1 [3AT, 3-Amino-1,2,4-triazole]",cell growth,sif285-1 GCN2 cells,impaired
same,HIS4-LacZ expression,HIS4-LacZ [1],not derepressed
same,HIS4 transcription derepression,HIS4-LacZ [2],~2 fold
eIF2 WT: Wild-type yeast translation initiation factor eIF2 complex purified from an overexpression yeast strain (V5-SUI3),Koff BODIPY-GDP,[3],0.00487 ± 0.000417 s⁻¹
same,pKd,Met–tRNAi,8.55
same,stabilization of GDP binding by eIF5 (GDI activity),eIF5,stabilized by eIF5
"Cc1cc(C)n2c1C=C1C=CC(CCC(=O)NCCNC(=O)OC3C(COP(=O)(O)OP(=O)(O)O)OC(n4cnc5c(=O)[nH]c(N)nc54)C3O)=[N+]1[B-]2(F)F (centres unmarked) [BODIPY-FL-GDP, guanosine 5'-diphosphate, BODIPY FL 2'-(or-3')-O-(N-(2-aminoethyl)urethane)]",pKd,eIF2 WT,7.72
same,pKd,[4],7.71
"Cc1cc(C)n2c1C=C1C=CC(CCC(=O)NCCNC(=O)OC3C(COP(=O)(O)OP(=O)(O)OP(=O)(O)O)OC(n4cnc5c(=O)[nH]c(N)nc54)C3O)=[N+]1[B-]2(F)F (centres unmarked) [BODIPY-FL-GTP, guanosine 5'-triphosphate, BODIPY FL 2'-(or-3')-O-(N-(2-aminoethyl)urethane)]",pKd,eIF2 WT,7.45
same,pKd,[4],7.49
"eIF2B, P14741 1-305; P32502 1-381; P09032 1-578; P12754 1-651; P32501 1-712","K1/2 of eIF2B for GEF-promoted release of BODIPY-FL-GDP from purified eIF2•BODIPY-GDP (20 nM), room temperature",[5],92.6 nM
